Laboratory results published in PubChem BioAssay (NCI).
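Where inhibition never reached the appropriate level, the endpoint shown equals the highest concentration tested. Otherwise, values were interpolated linearly from a five-concentration, 48-hour dose response in 96-well plates. At the TGI there is no net growth.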

How the values were obtained:
Test in all cases: inhibition of tumour cell growth, NCI panel, 48 h
786-0 renal = test system: 786-0 renal
A498 renal = test system: A498 renal
CAKI-1 renal = test system: CAKI-1 renal
CCRF-CEM leukemia = test system: CCRF-CEM leukemia
COLO 205 colon = test system: COLO 205 colon
DLD-1 colon = test system: DLD-1 colon
DMS 114 small cell lung = test system: DMS 114 small cell lung
DMS 273 small cell lung = test system: DMS 273 small cell lung
HCC-2998 colon = test system: HCC-2998 colon
HCT-116 colon = test system: HCT-116 colon
HL-60(TB) leukemia = test system: HL-60(TB) leukemia
HOP-62 NSCLC = test system: HOP-62 NSCLC
HOP-92 NSCLC = test system: HOP-92 NSCLC
IGROV1 ovarian = test system: IGROV1 ovarian
K-562 leukemia = test system: K-562 leukemia
LXFL 529 NSCLC = test system: LXFL 529 NSCLC
M14 melanoma = test system: M14 melanoma
M19-MEL melanoma = test system: M19-MEL melanoma
MALME-3M melanoma = test system: MALME-3M melanoma
MOLT-4 leukemia = test system: MOLT-4 leukemia
NCI-H226 lung = test system: NCI-H226 lung
NCI-H23 lung = test system: NCI-H23 lung
NCI-H460 lung = test system: NCI-H460 lung
NCI-H522 lung = test system: NCI-H522 lung
OVCAR-4 ovarian = test system: OVCAR-4 ovarian
RPMI-8226 leukemia = test system: RPMI-8226 leukemia
SF-268 CNS = test system: SF-268 CNS
SF-539 CNS = test system: SF-539 CNS
SK-MEL-2 melanoma = test system: SK-MEL-2 melanoma
SK-MEL-28 melanoma = test system: SK-MEL-28 melanoma
SK-OV-3 ovarian = test system: SK-OV-3 ovarian
SN12C renal = test system: SN12C renal
SNB-75 CNS = test system: SNB-75 CNS
SNB-78 CNS = test system: SNB-78 CNS
SR leukemia = test system: SR leukemia
UACC-62 melanoma = test system: UACC-62 melanoma
UO-31 renal = test system: UO-31 renal
XF 498 CNS = test system: XF 498 CNS
A549 NSCLC = test system: A549 NSCLC
ACHN renal = test system: ACHN renal
DU-145 prostate = test system: DU-145 prostate
EKVX NSCLC = test system: EKVX NSCLC
HOP-18 NSCLC = test system: HOP-18 NSCLC
HT29 colon = test system: HT29 colon
KM12 colon = test system: KM12 colon
KM20L2 colon = test system: KM20L2 colon
LOX IMVI melanoma = test system: LOX IMVI melanoma
OVCAR-3 ovarian = test system: OVCAR-3 ovarian
OVCAR-5 ovarian = test system: OVCAR-5 ovarian
OVCAR-8 ovarian = test system: OVCAR-8 ovarian
RXF 393 renal = test system: RXF 393 renal
SF-295 CNS = test system: SF-295 CNS
SK-MEL-5 melanoma = test system: SK-MEL-5 melanoma
SNB-19 CNS = test system: SNB-19 CNS
SW-620 colon = test system: SW-620 colon
TK-10 renal = test system: TK-10 renal
U251 CNS = test system: U251 CNS
UACC-257 melanoma = test system: UACC-257 melanoma
BT-549 breast = test system: BT-549 breast
HCT-15 colon = test system: HCT-15 colon
HS 578T breast = test system: HS 578T breast
MCF7 breast = test system: MCF7 breast
MDA-MB-231 breast = test system: MDA-MB-231 breast
MDA-MB-435 = test system: MDA-MB-435
MDA-N = test system: MDA-N
NCI/ADR-RES ovarian = test system: NCI/ADR-RES ovarian
PC-3 prostate = test system: PC-3 prostate
T-47D breast = test system: T-47D breast

Work on `CCNC1CC(n2cc(C)c(=O)[nH]c2=O)OC1CO` (centres undefined) yielded a TGI (786-0 renal) greater than 100 µM, a TGI (A498 renal) greater than 100 µM and a TGI (CAKI-1 renal) greater than 100 µM. For the same compound, the TGI (CCRF-CEM leukemia) was greater than 100 µM, the TGI (COLO 205 colon) was greater than 100 µM and the TGI (DLD-1 colon) was greater than 100 µM. For the same compound, the TGI (DMS 114 small cell lung) was greater than 100 µM, the TGI (DMS 273 small cell lung) was greater than 100 µM and the TGI (HCC-2998 colon) was greater than 100 µM. For the same compound, the TGI (HCT-116 colon) was greater than 100 µM, the TGI (HL-60(TB) leukemia) was greater than 100 µM and the TGI (HOP-62 NSCLC) was greater than 100 µM. It also gave a TGI (HOP-92 NSCLC) greater than 100 µM, a TGI (IGROV1 ovarian) greater than 100 µM and a TGI (K-562 leukemia) greater than 100 µM. The TGI (LXFL 529 NSCLC) was greater than 100 µM, the TGI (M14 melanoma) was greater than 100 µM and the TGI (M19-MEL melanoma) was greater than 100 µM. The TGI (MALME-3M melanoma) was greater than 100 µM, the TGI (MOLT-4 leukemia) was greater than 100 µM and the TGI (NCI-H226 lung) was greater than 100 µM. It also gave a TGI (NCI-H23 lung) greater than 100 µM, a TGI (NCI-H460 lung) greater than 100 µM and a TGI (NCI-H522 lung) greater than 100 µM. It also gave a TGI (OVCAR-4 ovarian) greater than 100 µM, a TGI (RPMI-8226 leukemia) greater than 100 µM and a TGI (SF-268 CNS) greater than 100 µM. For the same compound, the TGI (SF-539 CNS) was greater than 100 µM, the TGI (SK-MEL-2 melanoma) was greater than 100 µM and the TGI (SK-MEL-28 melanoma) was greater than 100 µM. For the same compound, the TGI (SK-OV-3 ovarian) was greater than 100 µM, the TGI (SN12C renal) was greater than 100 µM and the TGI (SNB-75 CNS) was greater than 100 µM. For the same compound, the TGI (SNB-78 CNS) was greater than 100 µM, the TGI (SR leukemia) was greater than 100 µM and the TGI (UACC-62 melanoma) was greater than 100 µM. It also gave a TGI (UO-31 renal) greater than 100 µM and a TGI (XF 498 CNS) greater than 100 µM.
`C/C(=N/NC(N)=S)C(CN1CCOCC1)C(C1=C(O)c2ccccc2OC1)c1ccccc1` (centres undefined) gave a TGI (786-0 renal) greater than 100 µM, a TGI (A498 renal) greater than 100 µM and a TGI (A549 NSCLC) greater than 100 µM. It also gave a TGI (ACHN renal) greater than 100 µM, a TGI (CAKI-1 renal) greater than 100 µM and a TGI (CCRF-CEM leukemia) greater than 100 µM. It also gave a TGI (COLO 205 colon) greater than 100 µM, a TGI (DLD-1 colon) greater than 100 µM and a TGI (DU-145 prostate) greater than 100 µM. For the same compound, the TGI (EKVX NSCLC) was greater than 100 µM, the TGI (HCC-2998 colon) was greater than 100 µM and the TGI (HCT-116 colon) was greater than 100 µM. It also gave a TGI (HL-60(TB) leukemia) of 50 µM, a TGI (HOP-18 NSCLC) greater than 100 µM and a TGI (HOP-92 NSCLC) greater than 100 µM. It also gave a TGI (HT29 colon) greater than 100 µM, a TGI (IGROV1 ovarian) greater than 100 µM and a TGI (K-562 leukemia) greater than 100 µM. The TGI (KM12 colon) was greater than 100 µM, the TGI (KM20L2 colon) was greater than 100 µM and the TGI (LOX IMVI melanoma) was greater than 100 µM. The TGI (LXFL 529 NSCLC) was greater than 100 µM, the TGI (M14 melanoma) was greater than 100 µM and the TGI (M19-MEL melanoma) was greater than 100 µM. The TGI (MALME-3M melanoma) was greater than 100 µM, the TGI (MOLT-4 leukemia) was greater than 100 µM and the TGI (NCI-H226 lung) was greater than 100 µM. The TGI (NCI-H23 lung) was greater than 100 µM, the TGI (NCI-H460 lung) was greater than 100 µM and the TGI (NCI-H522 lung) was greater than 100 µM. The TGI (OVCAR-3 ovarian) was greater than 100 µM, the TGI (OVCAR-4 ovarian) was greater than 100 µM and the TGI (OVCAR-5 ovarian) was greater than 100 µM. The TGI (OVCAR-8 ovarian) was greater than 100 µM, the TGI (RPMI-8226 leukemia) was greater than 100 µM and the TGI (RXF 393 renal) was greater than 100 µM. The TGI (SF-268 CNS) was greater than 100 µM, the TGI (SF-295 CNS) was greater than 100 µM and the TGI (SF-539 CNS) was greater than 100 µM. The TGI (SK-MEL-2 melanoma) was greater than 100 µM, the TGI (SK-MEL-5 melanoma) was greater than 100 µM and the TGI (SK-OV-3 ovarian) was greater than 100 µM. For the same compound, the TGI (SN12C renal) was greater than 100 µM, the TGI (SNB-19 CNS) was greater than 100 µM and the TGI (SNB-75 CNS) was greater than 100 µM. It also gave a TGI (SNB-78 CNS) greater than 100 µM, a TGI (SR leukemia) greater than 100 µM and a TGI (SW-620 colon) greater than 100 µM. For the same compound, the TGI (TK-10 renal) was greater than 100 µM, the TGI (U251 CNS) was greater than 100 µM and the TGI (UACC-257 melanoma) was greater than 100 µM. The TGI (UACC-62 melanoma) was greater than 100 µM, the TGI (UO-31 renal) was greater than 100 µM and the TGI (XF 498 CNS) was greater than 100 µM.
Compound `O=C1C=C(NCCc2ccccc2)c2ccccc2C1=O` has a TGI (786-0 renal) of 16.6 µM, a TGI (A498 renal) of 10.1 µM and a TGI (A549 NSCLC) of 3.79 µM. The TGI (ACHN renal) was 12.2 µM, the TGI (BT-549 breast) was 3.77 µM and the TGI (CAKI-1 renal) was 21.8 µM. For the same compound, the TGI (CCRF-CEM leukemia) was 67.9 µM, the TGI (COLO 205 colon) was 3.6 µM and the TGI (DLD-1 colon) was 21.9 µM. It also gave a TGI (DMS 114 small cell lung) of 5.81 µM, a TGI (DMS 273 small cell lung) of 7.55 µM and a TGI (DU-145 prostate) of 3.13 µM. It also gave a TGI (EKVX NSCLC) of 20.8 µM, a TGI (HCC-2998 colon) of 4.09 µM and a TGI (HCT-116 colon) of 18 µM. The TGI (HCT-15 colon) was 3.6 µM, the TGI (HL-60(TB) leukemia) was 13.6 µM and the TGI (HOP-18 NSCLC) was 3 µM. For the same compound, the TGI (HOP-62 NSCLC) was 4.89 µM, the TGI (HOP-92 NSCLC) was 29.5 µM and the TGI (HS 578T breast) was 5.09 µM. The TGI (HT29 colon) was 7.27 µM, the TGI (IGROV1 ovarian) was 21.3 µM and the TGI (K-562 leukemia) was 20.4 µM. It also gave a TGI (KM12 colon) of 8.72 µM, a TGI (KM20L2 colon) of 18.7 µM and a TGI (LOX IMVI melanoma) of 3.37 µM. The TGI (LXFL 529 NSCLC) was 19.1 µM, the TGI (M14 melanoma) was 2.99 µM and the TGI (M19-MEL melanoma) was 0.927 µM. For the same compound, the TGI (MALME-3M melanoma) was 2.47 µM, the TGI (MCF7 breast) was 3.34 µM and the TGI (MDA-MB-231 breast) was 42.8 µM. The TGI (MDA-MB-435) was 2.34 µM, the TGI (MDA-N) was 3.39 µM and the TGI (MOLT-4 leukemia) was 64.8 µM. For the same compound, the TGI (NCI-H226 lung) was 4.61 µM, the TGI (NCI-H23 lung) was 5.67 µM and the TGI (NCI-H460 lung) was 3.18 µM. It also gave a TGI (NCI-H522 lung) of 4.41 µM, a TGI (NCI/ADR-RES ovarian) of 23 µM and a TGI (OVCAR-3 ovarian) of 5.59 µM. The TGI (OVCAR-4 ovarian) was 13.4 µM, the TGI (OVCAR-5 ovarian) was 3.39 µM and the TGI (OVCAR-8 ovarian) was 19.7 µM. It also gave a TGI (PC-3 prostate) of 26.2 µM, a TGI (RPMI-8226 leukemia) of 67.5 µM and a TGI (RXF 393 renal) of 20.4 µM. It also gave a TGI (SF-268 CNS) of 23.1 µM, a TGI (SF-295 CNS) of 4.76 µM and a TGI (SF-539 CNS) of 4.46 µM. For the same compound, the TGI (SK-MEL-2 melanoma) was 5.18 µM, the TGI (SK-MEL-28 melanoma) was 3.96 µM and the TGI (SK-MEL-5 melanoma) was 2.31 µM. It also gave a TGI (SK-OV-3 ovarian) of 27 µM, a TGI (SN12C renal) of 3.37 µM and a TGI (SNB-19 CNS) of 9.29 µM. The TGI (SNB-75 CNS) was 3.14 µM, the TGI (SNB-78 CNS) was 42.8 µM and the TGI (SR leukemia) was 43.3 µM. It also gave a TGI (SW-620 colon) of 4.31 µM, a TGI (T-47D breast) of 40.1 µM and a TGI (TK-10 renal) of 27.3 µM. For the same compound, the TGI (U251 CNS) was 16.1 µM, the TGI (UACC-257 melanoma) was 2.93 µM and the TGI (UACC-62 melanoma) was 3.34 µM. It also gave a TGI (UO-31 renal) of 11.4 µM.
